Results reported in patent publication US20080234183A1, “Cell Penetrating Peptides” (priority 2002, published 2008).
Where no end group is shown, it is not given here. [ ]: non-standard residue; d: D form.

How the values were obtained:
[1] = tested on: porcine left anterior descending coronary artery; assay: Blood vessel contraction measurement
Protocol: Dissected porcine hearts (260-390 g) were transported from local slaughterhouse to the laboratory in ice-cold Krebs-Henseleit solution (119 mM NaCl, 23.8 mM NaHCO3, 3 mM KCl, 1.14 mM NaH2PO4, 1.63 mM CaCl2, and 16.5 mM glucose). Left anterior descending coronary artery and great cardiac vein were isolated. Part of each blood vessel was used immediately after Isolation for contraction assays while part of it was kept frozen in liquid nitrogen for the membrane preparation. In some experiments blood vessels in which endothelium was mechanically removed were used. The same procedure was used also for the preparation of human umbilical blood vessels; umbilical cords were obtained from Obstetric Clinic of Ljubljana Clinical Center, Slovenia.
The measurements were performed as already described (20). Rings (5 mm wide) of blood vessels were cut and mounted into 10 ml tissue chamber filled with Krebs-Henseleit solution (37° C.; pH=7.4) which was oxygenated with the mixture of ^95% O2 and 5% CO2. Initial tension of 50 mN was applied and after equilibration 30 mM KCl was added to obtain stable Isometric contraction. The presence of endothelium was verified with substance P. After washing out of KCl and substance P and after the equilibration of the system was restored, test peptide was added into the tissue chamber and blood vessel contraction was recorded.

pancreatic islets = assay: Insulin release from isolated pancreatic islets; format: cell-based, rat
Protocol: Effects of the peptides on insulin secretion were assessed in pancreatic islets from male Wistar rats weighing 200-250 g. Islets were isolated aseptically by colagenase digestion, and then cultured overnight at 37° C. in RPMI 1640 culture medium supplemented with 10% heat-inactivated fetal calf serum. After culturing, analysis of insulin secretion was performed by incubation at 37° C. for 1 h in batches of 3 islets, each in 300 μl of Krebs-Ringer bicarbonate buffer with 10 mM Hepes and 2 mg/ml bovine serum albumin, pH 7.4. The incubation medium contained either 3.3 or 16.7 mM glucose, with or without peptide. In one experimental series, batches of 5×10^5 Rin m5F cells were incubated under similar conditions, except that glucose was omitted from the medium. Aliquots of the incubation medium were taken for radioimmunoassay of Insulin. Insulin secretion is expressed as IU insulin/islet/h and IU insulin/5×10^5 cells/h, respectively. Statistical significance was evaluated with the Student's t-test with p<0.05 regarded as significant

[2] = tested on: N2A mouse neuroblastoma cells; assay: Cellular internalisation assay of fluorescein-labelled APP and PS peptides; format: cell-based; conditions: for cellular internalisation / cellular localisation: 10 μM, 37°; for cellular internalisation: 60 min
Protocol: Mouse neuroblastoma cells, N2A, were cultivated in Dulbecco's minimal essential medium with Glutamax-I, supplemented with 10% (v/v) fetal bovine serum, penicillin (100 U/ml) and streptomycin (100 μg/ml).
The cells used for Internalisation were seeded out on round glass coverslips in 24well plates. One day post seeding, the cells were semi confluent, and the medium was changed to serum-free medium. The fluorescein-labelled peptides were added, with a final concentration of 10 μM. After 60 min of incubation at 37°, the cells were washed 3 times with 1 ml of Hepes-Krebbs-Ringer-(HKR) buffer and fixed with 3% paraformaldehyde solution in phosphate-buffered saline solution (PBS) for 10 minutes. The cells were then washed 3 times with 1 ml of HKR-buffer, and the coverslips were mounted and sealed for microscopy studies.
The cell type used for the internalisation assays with the fluorescein'tagged peptides was N2A mouse neuroblastoma cells. This cell-line is commonly used in association with Alzheimer's disease studies, and serves as a good model cell-line for these internalisation assays where peptides derived from proteins involved in Alzheimer's disease were examined. These Internalisation assays were performed at 37° C., therefore the internalisation by endocytosis cannot be excluded.

Bowes cells = assay: Peptide uptake in attached Bowes cells, fluorescence in cell lysate; format: cell-based, human; conditions: Fluoresceinyl peptide, 5 μM, 30 min, 37° C.
Protocol: Cells were detached with trypsin (Invitrogen, Sweden), dissolved in culture media and centrifuged (1000×g for 10 min at RT). The cells were resuspended, counted and aliqoted in HKR on Ice, 300 000 cells/tube. Abz-labelled peptide was incubated for 15 and 30 min together with the cells in suspension, on a shaking 37° C. water bath. To stop the uptake or outflow, trypsin solution was added for 3 min. The cells were spun down at 1000×g for 10 min at 4° C. The pellets were resuspended in HKR for fluorescence detection, or for the outflow samples, incubated again with peptide-free HKR. Fluorescence was read at 320/420 nm on a Spectramax Gemini XS (Molecular Devices, Calif.). The intracellular concentrations were calculated from a standard curve of Abz-labelled peptides. […] Additionally, a varianty of the same assay was applied: the cells were seeded in a 24well plate at a density of 100 000 cells/well, the day before. Cells are incubated at 5 μM peptide concentration for 30 min at 37° C. Trypsin treated, washed and lysed in hydrochloric acid. The fluorescence was measured as described for the suspension assay.
Human melanoma cells Bowes, were cultured in MEM using standard cell culturing techniques, and seeded at density of 100 000 cells/well in 24 well-plates the day before experiments were conducted.

COc1ccc2c(c1)CC[C@@H]1[C@@H]2CC[C@]2(C)[C@@H](NCCCCCCN3C(=O)C=CC3=O)CC[C@@H]12 [Peptide U73122]
effect on tonus of the artery ([1]; 30 μM): did not affect tonus | effect on M511-induced contraction after posterior administration ([1]; 30 μM, 16 μM M511): did not modify blood vessel contraction | decrease of the effect of M511 ([1]; 30 μM, added 30 minutes prior to 16 μM M511): more than 50%

IAIAKLAA amide (IAIAKLAA-NH2) [GOP11]
Insulin release at 16.7 mM glucose (pancreatic islets; 10 μM peptide): inh− | Insulin release at 3.3 mM glucose (pancreatic islets; 100 μM peptide): inh− | Insulin release at 16.7 mM glucose (pancreatic islets; 100 μM peptide): inh−−

IAIAKLKA amide (IAIAKLKA-NH2) [GOP4]
Insulin release at 16.7 mM glucose (pancreatic islets; 10 μM peptide): inh−− | Insulin release at 3.3 mM glucose (pancreatic islets; 100 μM peptide): inh− | Insulin release at 16.7 mM glucose (pancreatic islets; 100 μM peptide): inh−

IATVIFITLVMLKKK [APP (712-726) V717F mutant]
aggregation on addition to the 24-well plate [2]: formed aggregates | cellular internalisation [2]: do not reveal any no uptake

IATVIVITLVMLKKK [APP (712-726) WT]
aggregation on addition to the 24-well plate [2]: formed aggregates | cellular internalisation [2]: do not reveal any no uptake

IVIAKLAA amide (IVIAKLAA-NH2) [GOP5]
Insulin release at 16.7 mM glucose (pancreatic islets; 10 μM peptide): inh− | Insulin release at 3.3 mM glucose (pancreatic islets; 100 μM peptide): no | Insulin release at 16.7 mM glucose (pancreatic islets; 100 μM peptide): no

IVIAKLRA amide (IVIAKLRA-NH2) [GOP3]
Insulin release at 16.7 mM glucose (pancreatic islets; 10 μM peptide): stim+ | Insulin release at 3.3 mM glucose (pancreatic islets; 100 μM peptide): stim++ | Insulin release at 16.7 mM glucose (pancreatic islets; 100 μM peptide): stim++

IVVSKLKA amide (IVVSKLKA-NH2) [GOP16]
Insulin release at 16.7 mM glucose (pancreatic islets; 10 μM peptide): no | Insulin release at 3.3 mM glucose (pancreatic islets; 100 μM peptide): no | Insulin release at 16.7 mM glucose (pancreatic islets; 100 μM peptide): no

KKAAQIRSQVMTHLRVI [APP (521-536)]
cellular localisation [2]: both in the nucleus and the membrane | cellular internalisation [2]: has cell-penetrating abilities

LRSWRVIIRNGQR [LRSW-3]
% of added fluorescence in cell lysate (Bowes cells): 1.9%

LRSWVISRSIRKAA [LRSW-1]
% of added fluorescence in cell lysate (Bowes cells): 1.4%

Sar^1-Thr^8-angiotensin II
effect on contraction induced by M511 ([1]; 45 μM antagonist): unable to affect | effect on contraction induced by angiotensin II ([1]; 45 μM antagonist): able to revert

TP10 [reference compound]
% of added fluorescence in cell lysate (Bowes cells): 1.8%

Transportan [reference compound]
% of added fluorescence in cell lysate (Bowes cells): 10.5%

VATKSVSVFYTRK [presenilin-1 (97-109) deletion analogue]
cellular localisation [2]: mostly localised in the cytosole | cellular internalisation [2]: showed cell-penetrating abilities

VVLYKYRCYKVI [presenilin-1 (151-162)]
cellular internalisation [2]: Identical increase in fluorescence

all-D-(IVIAKLKA) amide ([dI][dV][dI][dA][dK][dL][dK][dA]-NH2; N-terminus assumed; SMILES CC[C@@H](C)[C@@H](N)C(=O)N[C@@H](C(=O)N[C@@H](C(=O)N[C@H](C)C(=O)N[C@H](CCCCN)C(=O)N[C@H](CC(C)C)C(=O)N[C@H](CCCCN)C(=O)N[C@H](C)C(N)=O)[C@H](C)CC)C(C)C) [GOP6]
Insulin release at 16.7 mM glucose (pancreatic islets; 10 μM peptide): inh− | Insulin release at 3.3 mM glucose (pancreatic islets; 100 μM peptide): stim+ | Insulin release at 16.7 mM glucose (pancreatic islets; 100 μM peptide): no

angiotensin: angiotensin II, AT1 receptor agonist
contraction effect compared with 30 mM KCl ([1]; 1 μM): almost the same as the effect of 30 mM KCl
